Values of other authors in patent US5520931A (Gacell Laboratories AB, priority 1992, dated 1996).

System: cancer pain
Details: severe pain, WHO programme

CN1CC[C@]23c4c5ccc(O)c4O[C@H]2[C@@H](O)C=C[C@H]3[C@H]1C5 [morphine]
efficacy and acceptability in advanced cancer pain: both efficacious and acceptable
